{"source": "patent US10660898B2", "about": "“Benzimidazole derivatives as PI3 kinase inhibitors” (GLAXOSMITHKLINE LLC, priority 2010, dated 2020)", "test_in_all_cases": "Anchorage independent soft agar tumor growth assay", "type_in_all_cases": "cell-based", "key": {"HCT-116": {"tested_on": "HCT-116", "conditions": "HCT-116 colon carcinoma, PTEN Wild-type", "description": "(§1) Cellular Assays—Cell Growth Inhibition Assay in PTEN Wild-Type or PTEN Deficient Tumor Cell Lines Twenty-two Phosphatase and Tensin Homolog (PTEN) wild-type or PTEN deficient tumor cell lines were cultured generally according to instructions supplied by cell culture supplier American Type Culture Collection, Manassas, Va., with 10% fetal bovine serum at 5% CO2 and 37° C. Cells were seeded into either a T-75 or a T-175 flask 3-4 days prior to 96-well assay plating such that the flasks were approximately 70-80% confluent of the time of harvest. Cells were harvested using 0.25% trypsin-EDTA (Invitrogen #25200056). Trypan Blue exclusion staining was used to determine cell number. Viable cells were plated in clear, flat bottom 96-well plates (BD #353075) under anchorage independent conditions at 2,000-10,000 cells per well depending on the cell line. To generate anchorage independent growth conditions, a 5% agar stock solution in water was made and autoclaved to melt and sterilize. From the 5% agar solution, a 0.6% agar/media+10% fetal bovine serum (FBS) solution was made to generate a bottom agar layer in the plates to prevent cell attachment. Seventy five microliters per well of the 0.6% agar-media solution was added to the plates. After solidification, a cell solution of 266,870 to 1, 334,022 cells (depending on the cell line) in 10 ml of 0.3% agar/media+10% FBS was made and 75 μl of the cell/media/agar suspension was added to the plates. After the cell layer solidified, 50 μl of media+10% FBS was added to the top of the cells. A 0.3% Brij 35 (Sigma B4184) solution in media+10% FBS was added to column 12 as a background subtraction control. The cells were incubated overnight at 5% CO2 and 37° C. The next day one plate of cells was processed at the time of compound addition to quantify the starting number of cells (T=0 or T0). […] Three hundred microliters of media was added to the compound dilutions. Ten microliters per well of the serial dilutions was added to the cells and the plates incubated for 6 days at 5% CO2 and 37° C. […] Following the 6-day incubation, 20 μl of Alamar Blue (Invitrogen # DAL1100) was added to the cells, incubated at 5% CO2 and 37° C. for 6 hours and the plates read on a Spectramax (Gemini EM) at 530 nm (excitation) and 590 nm (emission) with the auto cut-off disabled. For analysis of cell growth inhibition dose response curves, the data was plotted as the percent of the DMSO-treated control samples (DMSO samples set to 100%). […] Values from wells containing 0.3% Brij 35 (under anchorage independent conditions) were subtracted from all samples for background correction."}, "WM-115": {"tested_on": "WM-115", "conditions": "WM-115 skin melanoma, PTEN p.165fs*, No protein", "description": "as §1"}, "UM-UC-3": {"tested_on": "UM-UC-3", "conditions": "UM-UC-3 bladder transitional, PTEN Loss, No protein", "description": "as §1"}, "C32": {"tested_on": "C32", "conditions": "C32 skin melanoma, PTEN p.55fs*, No protein", "description": "as §1"}, "UACC-62": {"tested_on": "UACC-62", "conditions": "UACC-62 skin melanoma, PTEN p.P248fs*5, No protein", "description": "as §1"}, "SW1783": {"tested_on": "SW1783", "conditions": "SW1783 CNS glioblastoma, PTEN p.R233*, No protein", "description": "as §1"}, "MDA-MB-468": {"tested_on": "MDA-MB-468", "conditions": "MDA-MB-468 breast carcinoma, PTEN p.?, L70Fs*7, No protein", "description": "as §1"}, "CHL-1": {"tested_on": "CHL-1", "conditions": "CHL-1 skin melanoma, PTEN Wild-type, Protein", "description": "as §1"}, "HCC1954": {"tested_on": "HCC1954", "conditions": "HCC1954 breast carcinoma, PTEN Wild-type, Protein", "description": "as §1"}, "LOXIMVI": {"tested_on": "LOXIMVI", "conditions": "LOXIMVI skin melanoma, PTEN Wild-type, Protein", "description": "as §1"}, "U-87MG": {"tested_on": "U-87MG", "conditions": "U-87MG CNS glioblastoma, PTEN p.? (splice site mutation), No protein", "description": "as §1"}, "SW1088": {"tested_on": "SW1088", "conditions": "SW1088 CNS glioblastoma, PTEN Loss, No protein", "description": "as §1"}, "H4": {"tested_on": "H4", "conditions": "H4 CNS glioblastoma, PTEN Loss, No protein", "description": "as §1"}, "HCC19377": {"tested_on": "HCC19377", "conditions": "HCC19377 breast carcinoma, PTEN Loss, No protein", "description": "as §1"}, "SKOV-3": {"tested_on": "SKOV-3", "conditions": "SKOV-3 ovary adenocarcinoma, PTEN Wild-type", "description": "as §1"}, "[1]": {"conditions": "percent of DMSO-treated control"}, "[2]": {"conditions": "Homo sapiens, 144 h, 6-day incubation, Alamar Blue, read-out: Compound EC50 (nM) ± StDev"}, "[3]": {"conditions": "144 h, 6-day incubation, Alamar Blue, read-out: Compound EC50 (nM) ± StDev"}}}
{"smiles": "Cc1c(Cn2c(C)nc3c(C(=O)O)cc(N4CCOCC4)cc32)cccc1C(F)(F)F", "note": "[Example 31, 2-methyl-1-{[2-methyl-3-(trifluoromethyl)phenol]methyl}-6-(4-morpholinyl)-1H-benzimidazole-4-carboxylic acid]", "values": [{"measurement": "Compound Ymin ± StDev", "setting": "HCT-116; [1]", "result": ">80"}, {"measurement": "EC50", "setting": "HCT-116; [2]", "result": "> 30700", "unit": "nM"}, {"measurement": "EC50", "setting": "WM-115; [2]", "result": "8 ± 3", "unit": "nM"}, {"measurement": "Compound Ymin ± StDev", "setting": "WM-115; [1]", "result": "54 ± 14"}, {"measurement": "EC50", "setting": "UM-UC-3; Homo sapiens, UMUC3, 144 h, 6-day incubation, Alamar Blue, read-out: Compound EC50 (nM) ± StDev", "result": "10 ± 8", "unit": "nM"}, {"measurement": "Compound Ymin ± StDev", "setting": "UM-UC-3; [1]", "result": "83 ± 29"}, {"measurement": "Compound Ymin ± StDev", "setting": "C32; [1]", "result": "20 ± 14"}, {"measurement": "EC50", "setting": "C32; [2]", "result": "8 ± 2", "unit": "nM"}, {"measurement": "EC50", "setting": "UACC-62; [2]", "result": "23 ± 27", "unit": "nM"}, {"measurement": "Compound Ymin ± StDev", "setting": "UACC-62; [1]", "result": "76 ± 18"}, {"measurement": "EC50", "setting": "SW1783; [2]", "result": "10 ± 3", "unit": "nM"}, {"measurement": "Compound Ymin ± StDev", "setting": "SW1783; [1]", "result": "69 ± 4"}, {"measurement": "EC50", "setting": "MDA-MB-468; [2]", "result": "89 ± 55", "unit": "nM"}, {"measurement": "Compound Ymin ± StDev", "setting": "MDA-MB-468; [1]", "result": "44 ± 6"}, {"measurement": "Compound Ymin ± StDev", "setting": "CHL-1; [1]", "result": "82 ± 2"}, {"measurement": "EC50", "setting": "CHL-1; [2]", "result": "14 ± 6", "unit": "nM"}, {"measurement": "Compound Ymin ± StDev", "setting": "HCC1954; [1]", "result": ">80"}, {"measurement": "EC50", "setting": "HCC1954; [2]", "result": "> 30700", "unit": "nM"}, {"measurement": "EC50", "setting": "LOXIMVI; Homo sapiens, LOX IMVI, 144 h, 6-day incubation, Alamar Blue, read-out: Compound EC50 (nM) ± StDev", "result": "> 30700", "unit": "nM"}, {"measurement": "Compound Ymin ± StDev", "setting": "LOXIMVI; [1]", "result": ">90"}, {"measurement": "EC50", "setting": "U-87MG; [2]", "result": "2980 ± 2770", "unit": "nM"}, {"measurement": "Compound Ymin ± StDev", "setting": "U-87MG; [1]", "result": "34 ± 18"}, {"measurement": "EC50", "setting": "SW1088; [2]", "result": "12 ± 6", "unit": "nM"}, {"measurement": "Compound Ymin ± StDev", "setting": "SW1088; [1]", "result": "36 ± 8"}, {"measurement": "EC50", "setting": "H4; [3]", "result": "12 ± 8", "unit": "nM"}, {"measurement": "Compound Ymin ± StDev", "setting": "H4; [1]", "result": "55 ± 18"}, {"measurement": "EC50", "setting": "HCC19377; [3]", "result": "24 ± 8", "unit": "nM"}, {"measurement": "Compound Ymin ± StDev", "setting": "HCC19377; [1]", "result": "67 ± 8"}, {"measurement": "EC50", "setting": "SKOV-3; Homo sapiens, SK-OV-3, 144 h, 6-day incubation, Alamar Blue, read-out: Compound EC50 (nM) ± StDev", "result": "> 30700", "unit": "nM"}, {"measurement": "Compound Ymin ± StDev", "setting": "SKOV-3; [1]", "result": ">80"}]}
